The values that follow come from paper PMC12196278, “Targeting Neuronal Nitric Oxide Synthase (nNOS) as a Novel Approach to Enhancing the Anti-Melanoma Activity of Immune Checkpoint Inhibitors” (Pharmaceutics, 2025).

The structures appear in SMILES notation. Like-named read-outs stand apart in the source and are kept apart here.

Data set [1] has as its target Human nNOS (Homo sapiens, UniProt P29475). In words: nNOS inhibitory assay, human nNOS. Type of data set: biochemical. The conditions noted are these: calculated from IC50 with Cheng-Prusoff equation; read-out: Ki Human nNOS (hn). The procedure: The Ki values were calculated from the IC50 values of the corresponding dose-response curves using the Cheng-Prusoff equation. […] Selectivity values were determined by calculating the ratios of the respective Ki values.

Data set [2] deals with Human eNOS (Homo sapiens, UniProt P29474). In words: NOS selectivity assay, human eNOS. The conditions noted are these: calculated from IC50 with Cheng-Prusoff equation; read-out: Ki Human eNOS (he). Type of data set: biochemical. The procedure:
The Ki values were calculated from the IC50 values of the corresponding dose-response curves using the Cheng-Prusoff equation. […] All standard errors were less than 5%. Selectivity values were determined by calculating the ratios of the respective Ki values.

The subject of data set [3] is A375 cells. The data set can be described thus: NanoString nCounter PanCancer IO 360 gene expression profiling. Format: cell-based, human. The procedure:
After treatment, the total RNA samples were collected from A375 cells using an RNeasy Mini Kit (#74104; Qiagen, Hilden, Germany) and stored at −80 °C prior to analysis. The nCounter PanCancer IO 360 Panel and nCounter Pro Analysis System (NanoString, Seattle, WA, USA) were used to quantify gene expression changes in 770 genes implicated in immune-oncological processes. The transcriptomic data were analyzed using ROSALIND online platform (https://www.rosalind.bio/, San Diego, CA, USA).
(b) Comparing IFN-γ treatment to control. (c) Comparing the combination treatment to IFN-γ alone. […] All the treatments were independently repeated three times. […] The analysis was based on the expression changes of genes involved in each specific pathway, with a higher score signifying a greater probability of pathway involvement.

Data set [4] deals with peripheral T cells. In words: Immune profile of peripheral T cells in allograft melanoma mice (flow cytometry). Type of data set: in vivo, mouse. The conditions noted are these: HH044 10 mg/kg intraperitoneal daily, peripheral blood, vs control group. As for the experimental part:
The in vivo studies were carried out in compliance with the ARRIVE guidelines. All animal procedures were approved by the Institutional Animal Care and Use Committee (IACUC) at Chapman University and conducted in compliance with the policies of Chapman University and federal, state, and local animal welfare authorities. DBA/2 mice were purchased from Charles River (Wilmington, MA, USA) and housed in the Chapman University vivarium. Male mice were selected for the in vivo studies due to the markedly slow growth rate of CS91 cells in female mice observed in previous studies. To induce melanoma tumor growth, the mice were injected subcutaneously with 1 × 10^5 CS91 murine melanoma cells in a 100 μL solution of 50% Matrigel basement membrane matrix (CB354248, Corning, Corning, NY, USA). […] At the end of the study, peripheral blood was collected from the mice for T cell analysis.
Cells were blocked in FACS block buffer (0.5% BSA, 2% FBS in 1× PBS) and incubated in a surface marker antibody dilution in FACS wash buffer (0.5% BSA, 0.05% NaN3 in 1× PBS). Following fixation with True-Nuclear Fix Buffer (424401; BioLegend, San Diego, CA, USA), the cells were incubated with an intracellular antibody diluted in True-Nuclear Perm Buffer (424401; BioLegend, San Diego, CA, USA) overnight at 4 °C. The stained cells were then washed with Perm Buffer and analyzed using a BD Fortessa X20 flow cytometer (BD Biosciences, San Jose, CA, USA). Compensation beads (anti-mouse 552843; anti-rat 552844; BD Biosciences, Franklin Lakes, NJ, USA) stained with single antibodies were used to calculate the compensation, and data were analyzed and gated using FlowJo v. 10.8.1 (FlowJo LLC, Ashland, OR, USA).
Peripheral blood samples were collected from the DBA/2 mice at the end of the study. T cells were isolated from the blood using Ficoll separation and stained as described above. The Ficoll-Paque solution was obtained from Cytiva (17144002; Marlborough, MA, USA). The T cell marker antibodies used were Brilliant Violet 605 anti-mouse CD3, PE/Cyanine7 anti-mouse CD4, Brilliant Violet 785 anti-mouse CD8a, APC/Cyanine7 anti-mouse CD279 (PD-1), Alexa Fluor 647 anti-GATA3, Alexa Fluor 488 anti-mouse FOXP3, Brilliant Violet 421 anti-T-bet (100237; 100421; 100749; 135223; 653809; 126406; 644815; BioLegend, San Diego, CA, USA), and PE-CF594 mouse anti-mouse RORγt (562684; BD Biosciences, Franklin Lakes, NJ, USA).

The subject of data set [5] is CS91 murine melanoma allograft. In words: In vivo anti-melanoma efficacy, immunocompetent allograft model, tumor volume. Further details: species or system mouse. The conditions noted are these: day 18, DBA/2 mice, nNOS inhibitor 10 mg/kg/day intraperitoneal, anti-PD-1 100 µg twice per week for 2 weeks. As for the experimental part: (§1) As described above, male DBA/2 mice were purchased from Charles River and housed in the Chapman University vivarium under pathogen-free conditions. Each mouse received a subcutaneous injection in the flank with 0.25 × 10^6 CS91 cells suspended in 50% Matrigel. […] The body weight and tumor volume were measured twice weekly for three weeks. Tumors were measured using calipers, and the volume (mm^3) was calculated with the following formula: volume = [length × (width^2)]/2. The mice were sacrificed once their tumors reached 2000 mm^3, and dates were recorded for survival analysis.

Data set [6] relates to CS91 murine melanoma allograft. The data set can be described thus: Survival analysis in the murine melanoma model (endpoint tumor volume 2000 mm^3). Type of data set: in vivo, mouse. To be noted: DBA/2 mice, CS91, result in words. The procedure:
as §1
Statistical analyses were carried out using GraphPad Prism 9. Comparisons of multiple groups were performed using mixed-effects analysis of variance (ANOVA) followed by Tukey’s post hoc test for parametric data. Statistical comparisons of two groups were performed using an unpaired two-tailed t-test for parametric data. Statistical comparison for a simple 2 × 2 contingency table was performed using a Chi-Square calculator on Social Science Statistics. Kaplan Meier methods were utilized for estimating the survival probability over time, with a tumor volume of 2000 mm^3 marking the endpoint for the survival study. A p value less than 0.05 was considered statistically significant for all statistical analyses. Data are graphically represented as bar graphs with the mean ± standard error of the mean (SEM).

Data set [7] in a line: Body weight, cecum weight and toxicity signs in treated mice. Type of data set: in vivo, mouse. The procedure: as §1
Upon reaching the study endpoint, the mice were euthanized, and organs were collected and weighed.

Data set [8] has as its system CS91 cells. The data set can be described thus: Ex vivo sensitivity of murine melanoma cells after prolonged treatment (MTT). Format: cell-based, mouse. As for the experimental part:
The aseptically collected tumor samples were mechanically dissociated in 1× PBS and passed through a 40 µm cell strainer. Single cell suspensions were centrifuged and resuspended in full growth media supplemented with 100 µg/mL of primocin. The cells were then plated and allowed to adhere for 24 h. Afterward, the cultures were washed twice with 1× PBS to remove non-adherent cells and allowed to grow in full growth media.
GraphPad Prism 9 was used to determine the IC50 of each compound by plotting the percent cell viability against the log drug concentrations and fitted using a nonlinear fit of the normalized data.

Data set [9] deals with melanoma cells. Details: method as in PMID 35105915. To be noted: read-out: Cytotoxicity IC50; cited from earlier work.

Human eNOS, sequence (P29474 whole entry): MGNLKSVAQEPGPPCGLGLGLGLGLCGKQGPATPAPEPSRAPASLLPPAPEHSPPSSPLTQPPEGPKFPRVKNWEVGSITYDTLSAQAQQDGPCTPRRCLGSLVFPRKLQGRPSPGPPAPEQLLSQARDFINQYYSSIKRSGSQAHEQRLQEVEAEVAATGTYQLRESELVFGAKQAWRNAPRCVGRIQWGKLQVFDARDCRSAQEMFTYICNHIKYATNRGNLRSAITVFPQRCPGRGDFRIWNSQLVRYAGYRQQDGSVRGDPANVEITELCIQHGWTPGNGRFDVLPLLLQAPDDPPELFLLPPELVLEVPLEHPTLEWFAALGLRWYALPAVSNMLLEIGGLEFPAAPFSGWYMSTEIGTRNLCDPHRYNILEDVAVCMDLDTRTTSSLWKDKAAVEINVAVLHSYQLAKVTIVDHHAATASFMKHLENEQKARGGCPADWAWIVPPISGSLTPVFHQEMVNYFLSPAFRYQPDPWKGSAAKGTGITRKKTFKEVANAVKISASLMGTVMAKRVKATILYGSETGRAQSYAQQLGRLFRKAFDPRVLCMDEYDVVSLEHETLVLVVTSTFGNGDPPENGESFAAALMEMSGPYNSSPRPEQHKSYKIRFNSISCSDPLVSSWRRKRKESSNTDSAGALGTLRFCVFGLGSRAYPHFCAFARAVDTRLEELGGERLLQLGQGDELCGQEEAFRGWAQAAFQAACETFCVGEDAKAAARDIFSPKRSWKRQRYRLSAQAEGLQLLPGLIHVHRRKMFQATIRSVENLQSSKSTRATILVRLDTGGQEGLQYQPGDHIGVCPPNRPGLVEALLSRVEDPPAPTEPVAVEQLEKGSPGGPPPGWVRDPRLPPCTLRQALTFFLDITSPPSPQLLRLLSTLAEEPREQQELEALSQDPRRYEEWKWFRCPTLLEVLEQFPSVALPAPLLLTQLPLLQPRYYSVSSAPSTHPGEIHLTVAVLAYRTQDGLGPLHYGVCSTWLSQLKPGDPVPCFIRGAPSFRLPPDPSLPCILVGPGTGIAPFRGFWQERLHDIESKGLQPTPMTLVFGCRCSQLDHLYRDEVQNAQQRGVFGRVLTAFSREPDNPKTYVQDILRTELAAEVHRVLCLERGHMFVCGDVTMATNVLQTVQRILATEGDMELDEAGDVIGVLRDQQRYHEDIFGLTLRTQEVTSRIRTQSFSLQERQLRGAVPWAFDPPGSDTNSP
Human nNOS, sequence (P29475 whole entry): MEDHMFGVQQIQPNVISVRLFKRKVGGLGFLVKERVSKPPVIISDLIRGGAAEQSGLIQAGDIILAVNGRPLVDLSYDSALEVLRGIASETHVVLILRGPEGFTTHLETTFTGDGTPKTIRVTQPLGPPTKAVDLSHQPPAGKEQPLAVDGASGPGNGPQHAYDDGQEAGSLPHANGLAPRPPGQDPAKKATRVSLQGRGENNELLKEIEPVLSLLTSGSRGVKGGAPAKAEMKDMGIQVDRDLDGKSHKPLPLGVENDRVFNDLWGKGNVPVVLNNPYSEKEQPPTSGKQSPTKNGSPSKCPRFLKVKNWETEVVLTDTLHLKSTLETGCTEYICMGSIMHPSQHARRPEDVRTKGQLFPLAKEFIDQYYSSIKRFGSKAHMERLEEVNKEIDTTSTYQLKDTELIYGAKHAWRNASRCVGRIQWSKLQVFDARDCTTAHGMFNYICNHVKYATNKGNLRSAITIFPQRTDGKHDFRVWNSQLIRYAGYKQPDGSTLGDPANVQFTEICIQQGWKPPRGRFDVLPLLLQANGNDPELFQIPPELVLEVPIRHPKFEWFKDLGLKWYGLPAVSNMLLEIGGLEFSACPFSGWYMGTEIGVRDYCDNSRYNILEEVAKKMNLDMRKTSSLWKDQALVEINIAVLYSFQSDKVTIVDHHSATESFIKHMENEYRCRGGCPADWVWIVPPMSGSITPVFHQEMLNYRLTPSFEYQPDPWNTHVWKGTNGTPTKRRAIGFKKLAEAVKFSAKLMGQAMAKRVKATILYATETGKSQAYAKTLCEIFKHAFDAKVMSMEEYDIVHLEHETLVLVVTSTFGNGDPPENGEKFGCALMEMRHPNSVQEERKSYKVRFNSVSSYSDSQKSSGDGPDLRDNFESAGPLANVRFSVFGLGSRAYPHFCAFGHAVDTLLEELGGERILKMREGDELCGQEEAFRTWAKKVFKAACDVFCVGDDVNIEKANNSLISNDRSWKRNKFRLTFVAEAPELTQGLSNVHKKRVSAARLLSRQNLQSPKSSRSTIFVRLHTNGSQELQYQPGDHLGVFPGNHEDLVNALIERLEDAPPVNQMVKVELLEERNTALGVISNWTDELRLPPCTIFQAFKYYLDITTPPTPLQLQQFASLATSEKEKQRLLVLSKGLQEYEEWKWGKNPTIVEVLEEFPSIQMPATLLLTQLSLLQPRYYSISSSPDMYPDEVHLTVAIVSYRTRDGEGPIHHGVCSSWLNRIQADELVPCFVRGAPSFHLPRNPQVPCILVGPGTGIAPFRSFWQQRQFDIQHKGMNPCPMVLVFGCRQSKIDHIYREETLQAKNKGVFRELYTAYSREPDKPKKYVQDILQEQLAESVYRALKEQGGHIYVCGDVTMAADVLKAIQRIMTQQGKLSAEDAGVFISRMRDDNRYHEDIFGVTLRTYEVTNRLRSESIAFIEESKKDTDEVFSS

As to `N=C(Nc1ccc(CCNCc2cccc(NC(=N)c3cccs3)c2)cc1)c1cccs1` [HH044], the Ki in data set [1] was 0.02 µM. Moreover, the Ki in data set [2] is 6.74 µM. Moreover, the Notch2 expression result in [3] (HH044 in the presence of IFN-γ) is listed as “increased”. Further, in data set [3] (HH044 treatment, A375), the AXIN1 expression entry is given as “increased” and the WNT5A expression result is recorded as “downregulated”. Besides, the IL-1α expression in data set [3] (HH044 treatment, A375, p < 0.05) is 30.3 % of the control. The “expression of EDN1, PDGFB, and MMP9” value in data set [3] (HH044 treatment, A375, vs control) is “significantly reduced”. Also, in data set [4], the “CD4+ T cell counts” value is given as “significantly increased”; the “CD4+GATA3+, CD4+RORγt+, CD4+Tbet+, and CD4+RORγt+FOXP3+ T cell counts” value was “decreased”; the “CD8+FOXP3+, CD8+GATA3+, CD8+Tbet+, and CD8+RORγt+FOXP3+ T cells” value is “significantly decreased”; the “frequency of CD8+PD-1+ T cells” value is listed as “markedly increased”. In addition, in [4], the “overall percentage of CD8+ T cells” value is reported as “significantly decreased”. Also, the “tumor growth / average tumor volume” value in data set [5] is recorded as 45.7 % of the control. Besides, in data set [6], the “median survival / mouse survival compared with the control group” value is “not found to have significantly different median survival values”. The cecum weights result in [7] (HH044 intraperitoneal 10 mg/kg/day ≥21 days vs control, p < 0.0001) was “significantly increased”. For the same compound, in data set [7] (HH044 oral gavage 10, 25 and 50 mg/kg per os daily, preliminary study), the cecum weight result is recorded as “failed to observe any significant differences”. Further, the “behavior and signs of toxicity during treatment” value in data set [7] (HH044 treatment ≥21 days) is given as “no behavioral changes or other observable signs of severe toxicity or distress”. Moreover, in data set [7] (HH044 treatment, 21 days), the body weight is recorded as 88 % of the control. Besides, in data set [7] (prolonged treatment, 21 days), the “body weight compared with the control” value is “significantly lower”. Besides, the IC50 in data set [8] (mice treated with the same compound 10 mg/kg/day intraperitoneal, read-out: IC50 of CS91 cells isolated from tumors of nNOS inhibitor-treated mice) was found to be 10.4 µM. For the same compound, in data set [8] (read-out: IC50 of in vitro cultured CS91 cells), the IC50 was found to be 12.7 µM. For the same compound, the IC50 in data set [9] was 5.27 ± 3.3 µM.
